Assay results published in patent US5756491A, “Antiviral cobalt-organic compounds” (priority 1991, dated 1998).
In brackets after ≈: the same amount, converted by molar mass. Several values for one entry are separate records, joined by “and”; a condition that tells them apart may be missing. Equal values may be shown once.

Legend:
HSV-2 (MS strain) [1] = experiment: Vaginal virus replication in primary genital HSV-2 infection of guinea pigs; assay type: in vivo, Female Hartley strain guinea pigs
Procedure: (§1) A series of studies were carried out to compare the activity of inventive antiviral Compounds 23, 76, and 82 in a primary genital HSV-2 infection of guinea pigs. The experiments were placebo-controlled and uninfected animals were treated with three concentrations of each of the preparations to assess skin irritation and determine the maximum tolerated dose.
(§2) The MS strain of HSV-2 was utilized for the experimental animal infection. Female Hartley strain guinea pigs (Charles River Breeding Laboratories, Kingston, N.Y.) weighing 250-300 g were inoculated intravaginally with 1.4×10^5 plaque forming units of HSV-2 one hour after being swabbed for the removal of vaginal secretions.
(§3) Groups of 10 infected guinea pigs were treated topically as stated above with 20 mg/ml (the maximum tolerated dose) of each compound beginning 6 h or 24 h after inoculation with HSV-2.
To determine the effect of treatment on vaginal virus replication, swabs of vaginal secretions were obtained on days 1, 3, 5, 7, and 10 after HSV-2 inoculation, placed in a tube containing 2.0 ml of media, vortexed and frozen at -70° until titrated for HSV-2. When all samples were collected, they were thawed, diluted serially and HSV-2 titers were determined using rabbit kidney cells in a microtiter CPE assay. Mean peak virus titers and areas under the virus titer-day curves were calculated and analyzed.
(§4) The number of animals infected over the number inoculated, lesion score-day areas and virus titer-day areas under the curve, peak lesion scores and peak virus titers between untreated and placebo-treated or placebo-treatedand drug-treated animals were compared using the Mann-Whitney U rank sum test. A p-value of 0.05 or less was considered significant.

HSV-2 (MS strain) [2] = experiment: External genital lesion development in primary genital HSV-2 infection of guinea pigs; assay type: in vivo, Female Hartley strain guinea pigs; set-up: key to Lesion Score-Day Area Under Curve: area under 0-5+ lesion score vs day curve (score-days); key to Mean Peak Lesion Score: lesion severity on 0-5+ scale
Procedure: as §1, §2, §3
To determine the effect of therapy on the development and spread of external genital lesions, lesion severity was scored on a 0-5+ scale through the primary infection (21 days). Mean peak lesion scores and the areas under the lesion score-day curves were calculated and analyzed.
as §4

[3] = test system: human foreskin fibroblast (HFF) cell monolayers; experiment: Toxicity effects controls: sham-inoculated compound-treated HFF monolayers; assay type: cell-based; conditions: Experiment 1 (Table 1); also: key: +: toxic; -: no toxicity; ±: mild toxicity; T: toxicity effects interfered with CPE rating
Text: (§5) With sufficient stirring, all the compounds completely dissolved.
In the tables, the symbols have the meaning indicated: […]

HSV-1 McKrae Strain = experiment: Direct virucidal efficacy against HSV-1 on HFF monolayers; assay type: cell-based; conditions: for virucidal efficacy (HSV-1 titer): Experiment 1 (Table 2), 24 h PI; for effective virucidal concentration IC50 / effective virucidal concentration IC90: HSV-1
Procedure: HSV-1 McKrae Strain was diluted to a final concentration of 10^5 PFU/ml in minimal essential medium (MEM). Hereinafter, this dilution is referred to as the HSV-1 Suspension for convenience.
as §5
Each of the drug solutions were mixed with the HSV-1 Suspension in a 1:1 ratio. The drug and HSV-1 Suspension mixture was incubated at 37° C. for thirty minutes with agitation every ten minutes. After the incubation, fifty microliter aliquots were overlaid onto triplicate confluent human foreskin fibroblast (HFF) cell monolayers. The inoculum was absorbed for thirty minutes and then a medium containing the appropriate drug concentration in MEM was added to the monolayers to a final volume of 0.5 milliliters per culture-well. The monolayers were incubated at 37° C. The developing HSV-1 Cytopathology was monitored daily for two days by inverted light microscopy. Titers were calculated by multiple regression analysis. All data is presented as the average PFU/ml reduction at 24 and/or 48 hours after inoculation (PI).
1. HSV-1 inoculated, non-compound treated HFF monolayers were included as "positive controls"; and […]

HCMV = HCMV plaque assay; assay type: cell-based; conditions: Human betaherpesvirus 5, HCMV
Procedure: The procedure is essentially the same as for HSV analysis with the following minor changes. The agarose used for the initial overlay and the two subsequent overlays is 0.8% rather than 1%. The assay is incubated for 14 days with the additional 1 ml overlays being applied on days four and eight.
The procedure for the liquid overlay plaque assay is similar to that using the agarose overlay. The procedure for adding the virus is the same as for the regular plaque assay. The drugs are made up in a concentration to be used in MEM with 2% FBS. The drugs are not made up at 2×concentration as in previous assays but are made up at the desired concentration. For HSV-1 and HSV-2 assays, an antibody preparation obtained from Baxter Health Care Corporation is diluted 1:500 and added to the media that the drug is diluted in. For CMV and VZV, no antibody in the overlay is utilized. For the CMV assay, additional medium without new drug is added on day six and allowed to incubate for a total of 11 days. For VZV, additional media is added on day five and incubated for a total of eight days. At the end of the incubation period for all of the assays, the medium is removed, the cells washed and then stained with 0.1% crystal violet solution for ten minutes. […]
I. EC50 values were also determined for each of the viruses tested for known antiviral agents. […]

HFF cells = experiment: Cell proliferation assay; assay type: cell-based, human; conditions: rapidly growing cells
Procedure: Twenty-four hours prior to assay, HFF cells are seeded in 6-well plates at a concentration of 2.5×10^4 cells per well in MEM containing 10% FBS. On the day of the assay, drugs are diluted serially in MEM containing 10% FBS at increments of 1:5 covering a range from 100 μg/ml to 0.03 μg/ml. […] The media from the wells is then aspirated and 2 ml of each drug concentration is then added to each well. The cells are then incubated in a Co2 incubator at 37° C. for 72 h. At the end of this time, the media-drug solution is removed and the cells washed. […] The cell-media mixture is then pipetted up and down vigorously to break up the cell suspension and 0.2 ml of the mixture is added to 9.8 ml of Isoton III and counted using a Coulter Counter. Each sample is counted three times with three replicate wells per sample.

CC([O-])=CC(C)=NCCN=C(C)C=C(C)[O-].[Br-].[Co+3].c1ccncc1.c1ccncc1 [Compound 76]
# Infected/# Inoculated (HSV-2 (MS strain) [1]; 20 mg/ml, started +6h): 5/10 | Mean Peak Virus Titer (HSV-2 (MS strain) [1]; 20 mg/ml, started +6h): 1.0 | P-Value for Mean Peak Virus Titer (HSV-2 (MS strain) [1]; 20 mg/ml, started +6h): < 0.001 | Virus Titer-Day Area Under Curve (HSV-2 (MS strain) [1]; 20 mg/ml, started +6h): 2.9 | # Infected/# Inoculated (HSV-2 (MS strain) [1]; 20 mg/ml, started +24h): 10/10 | Mean Peak Virus Titer (HSV-2 (MS strain) [1]; 20 mg/ml, started +24h): 4.3 | Virus Titer-Day Area Under Curve (HSV-2 (MS strain) [1]; 20 mg/ml, started +24h): 17.7 | infectivity rate (HSV-2 (MS strain) [1]; treatment beginning 6 h after infection): 50% | Lesion Score-Day Area Under Curve (HSV-2 (MS strain) [2]; 20 mg/ml, started +6h): 4.4 | Mean Peak Lesion Score (HSV-2 (MS strain) [2]; 20 mg/ml, started +6h): 0.4 | P-Value for Mean Peak Lesion Score (HSV-2 (MS strain) [2]; 20 mg/ml, started +6h): < 0.001 | Lesion Score-Day Area Under Curve (HSV-2 (MS strain) [2]; 20 mg/ml, started +24h): 37.2 | Mean Peak Lesion Score (HSV-2 (MS strain) [2]; 20 mg/ml, started +24h): 3.3 | lesion AUC difference vs untreated control animals (HSV-2 (MS strain) [2]; started +24 h, vs untreated control): not significant | toxicity effects ([3]; 24 h PI, 0.001 mg/ml): - | toxicity effects ([3]; 24 h PI, 0.01 mg/ml): - | toxicity effects ([3]; 24 h PI, 0.1 mg/ml): - | toxicity effects ([3]; 48 h PI, 0.001 mg/ml): - | toxicity effects ([3]; 48 h PI, 0.01 mg/ml): - | toxicity effects ([3]; 48 h PI, 0.1 mg/ml): - | toxicity effects ([3]; 48 h PI, 1 mg/ml): + | toxicity effects ([3]; 48 h PI, 10 mg/ml): + | virucidal efficacy (HSV-1 titer) (HSV-1 McKrae Strain; 0.001 mg/ml): 10^5 PFU/ml | virucidal efficacy (HSV-1 titer) (HSV-1 McKrae Strain; .01 mg/ml): 10^3 PFU/ml | effective virucidal concentration IC50 (HSV-1 McKrae Strain; Experiment 1 (Table 3)): 10 µg/mL | effective virucidal concentration IC90 (HSV-1 McKrae Strain; Experiment 1 (Table 3)): 100 to 1000 µg/mL | effective virucidal concentration IC50 (HSV-1 McKrae Strain; Experiment 2 (Table 6)): 10 µg/mL | effective virucidal concentration IC90 (HSV-1 McKrae Strain; Experiment 2 (Table 6)): 100 to 1000 µg/mL

Nc1nc2c(ncn2COC(CO)CO)c(=O)[nH]1 [DHPG]
EC50 (HCMV): 0.9 µg/mL (≈ 3.53 µM)

O=c1[nH]c(=O)n([C@@H]2O[C@H](CO)[C@@H](O)[C@@H]2F)cc1I [FIAU, 2'-fluoro-5-iodo-arabinosyl-uracil]
toxicity IC50, cell proliferation (HFF cells): 8.4 MCG/ML and 3.3 MCG/ML
